According to patent US20120070511A1, “MITOCHONDRIAL INHIBITORS AND USES THEREOF” (priority 2009, published 2012):
Like-named read-outs stand apart in the source and are kept apart here.

Tests used:
Assay type in all cases: cell-based
[1] = system: MM.1S cells; test: Reversal of CCCP induced toxicity (trypan blue exclusion); settings: 10 μM BAPTA-AM or 50 μM of Z-VAD
Description: A) Reversal of CCCP induced toxicity by either 10 μM BAPTA-AM or 50 μM of Z-VAD was investigated using trypan blue exclusion assays. The bars represent the average of triplicate samples +SD. B) ATP levels were assayed following 6 h of treatment with indicated concentrations of CCCP. The bars represent the average of triplicate samples +SD. C) Induction of UPR, activation of AMPK pathway and cleavage of caspase 3 was analyzed by western blots following 24 h treatment with indicated concentrations of CCCP in MM.1S and REH cell lines. β-Actin was used as a loading control. D) The quantification of phosphorylated AMPK and total AMPK bands in the previous panel was done using a Bio-Rad gel reader which employs Quality I software. The bars represent the fold increase in the ratio of p-AMPK/AMPK in treated versus untreated samples from three independent experiments +SD.
(§1) Cytotoxicity assay: Cells were incubated for 24 h at 37° C. in 5% CO2 at which time drug treatments began and continued for 24 h. At this time cells were transferred to a tube followed by centrifugation at 400 g for 5 min. The pellets were resuspended in 1 ml of Hanks solution and analyzed by Vi-Cell (Beckman Coulter, Fullerton, Calif., USA) cell viability analyzer.

[2] = system: multiple myeloma cell lines (MM.1S, 8226, KMS-11, U266)
Description: (§2) Cytotoxicity assay: Cells were incubated for 24 hr at 37° C. in 5% CO2 at which time drug treatments began and continued for 24 hr. At this time attached cells were trypsinized and combined with their respective culture media while suspension cells were directly transferred to a tube followed by centrifugation at 400 g for 5 min. The pellets were resuspended in 1 ml of Hanks solution and analyzed by Vi-Cell (Beckman Coulter, Fullerton, Calif.) cell viability analyzer.

[3] = system: non-myeloma cell lines (NALM6, 143B, MDA-MB-435, 1420)
Description: as §2

[4] = system: B-cell leukemia lines (NALM6, REH)
Description: as §1

[5] = system: MM cell lines (MM.1S, 8226, KMS-11)
Description: as §1

[6] = system: MM cell lines (MM1.S, 8226, KMS-11, U266); test: Measurement of cytoplasmic calcium (indo-1 fluorescence ratio 400/500 nm); settings: for effect on mitochondrial Ca2+ uptake / cytoplasmic Ca2+ after mitochondrial inhibitor: MM cell lines; for effect on mitochondrial Ca2+ uptake: estimated from cytoplasmic Ca2+
Description: (§3) Measurement of cytoplasmic calcium: Cytoplasmic Ca^2+ concentration was estimated by using the cell permeant fluorochrome indo-1-AM (Invitrogen, Carlsbad, Calif.). When excited at 355 nm, the maximum emission of indo-1 shifts from 500 nm to 400 nm following its binding to free Ca^2+. Thus, the ratio of reading at 400 nm and 500 nm correlates with concentration of cytoplasmic Ca^2+. Experiments were performed in cells loaded with indo-1 by incubating them with 2.5 μM of this fluorochrome at 37° C. for 45 min. Cells were then centrifuged at 400 g for 5 min and resuspended in their growth medium followed by distribution of 100 μl of aliquots into 96 well optical bottom plates (Nalge Nunc, Int., Rochester, N.Y.) and fluorescence was measured by Spectra Max Gemini Plus (Molecular Devices, Sunnyvale, Calif.). The average of triplicates from untreated samples was used as control reading and increase in cytoplasmic Ca^2+ was calculated as percent increase from control samples.

[7] = system: non-myeloma cell lines (NALM6, MDA-MB-435, 143B, 1420); test: as above; settings: for increase in cytoplasmic Ca2+ after mitochondrial inhibitor: non-myeloma cell lines (oligomycin: all cell lines)
Description: as §3

[8] = system: CHOP/GADD153 and cleaved caspase 3 in 4 MM cell lines; test: Western blot of CHOP/GADD153 and cleaved caspase 3 (UPR-mediated apoptosis); settings: all 4 MM cell lines
Description: Western Blot analysis: Cells are plated at 10^4 cell/cm^−2 for attached cells and 3×10^5/ml for suspension cells and grown under drug treatment for the indicated times. At the end of the treatment period, cells are collected and lysed with 1% SDS in 80 mM Tris-HCL (ph 7.4) buffer supplemented with a proteinase inhibitor cocktail. DNA is fragmented by sonication and protein concentrations are measured by microBCA protein assay kit (Pierce, Rockford, Ill.). Samples are mixed with 3× Laemmli sample buffer (Cell Signaling, Danvers, Mass.) and 40 μg of protein was run on a 12% SDS-polyacrylamide gel. Gels are transferred to nitrocellulose membranes (Amersham, Piscataway, N.J.) and probed with monoclonal rabbit anti-GRP94, anti GRP-78, anti-PDI, anti-CHOP/GADD153, anti-cleaved caspase 3 (Cell Signaling, Danvers, Mass.) and monoclonal mouse anti-β-actin (Sigma, St. Louis, Mo.). Following probing, membranes are washed and incubated with HRP-conjugated secondary antibody (Invitrogen, Carlsbad, Calif.). Following addition of 1:3 diluted femto-chemiluminescent substrate (Pierce, Rockford, Ill.) membranes were exposed to blue autoradiographic film (ISC bioexpress, Kaysville, Utah). Where indicated, membranes were stripped with Stripping Buffer (Pierce, Rockford, Ill.) and reprobed with anti-β-actin (Sigma-Aldrich, St. Louis, Mo.) primary antibody. When needed, the blots were quantified using Bio-Rad gel reader which employs Quality I software (Bio-Rad, Hercules, Calif.).

[9] = system: CHOP/GADD153 and cleaved caspase 3 in MM.1S, 8226, KMS-11; test: Western blot of CHOP/GADD153 and cleaved caspase 3 in 3 MM cell lines; settings: concentrations of FIG. 13
Description: . Induction of UPR-mediated apoptosis following treatment of 3 MM cell lines with four different mitochondrial inhibitors for various time points was assayed by western blot analysis of CHOP and cleaved caspase 3.
Western blot analysis: Western blots were performed. Membranes were probed with monoclonal rabbit anti-GRP94, anti GRP-78, anti-PDI, anti-CHOP/GADD153, anti-cleaved caspase 3 (Cell Signaling, Danvers, Mass., USA) and monoclonal mouse anti-β-actin (Sigma, St. Louis, Mo., USA).

[10] = system: MM (MM.1S, 8226, KMS-11) and B-cell leukemia (NALM6, REH) cell lines; test: ER Ca2+ leak: cytoplasmic Ca2+ (indo-1) after thapsigargine, Example 2
Description: Measurement of cytoplasmic and mitochondrial calcium: Cytoplasmic Ca^2+ concentration was estimated by using the cell permeant ratiometric fluorochrome indo-1-AM (Invitrogen, Carlsbad, Calif., USA) while mitochondrial Ca^2+ was measured by X-Rhod-1-AM (Invitrogen, Carlsbad, Calif., USA). In the latter assay, to normalize mitochondrial Ca^2+ signal to mitochondria number, Mitotracker Green (Invitrogen, Carlsbad, Calif., USA) fluorescence was simultaneously analyzed. Experiments were performed in cells loaded with either 2.5 μM of indo-1 or 5 μM X-rhod-1 and 250 nM of Mitotracker at 37° C. for 45 min. Cells were, then, centrifuged at 400 g for 5 min and resuspended in their growth medium followed by distribution of 100 μl of aliquots into 96 well optical bottom plates (Nalge Nunc, Int., Rochester, N.Y., USA) and fluorescence was measured by Spectra Max Gemini Plus (Molecular Devices, Sunnyvale, Calif., USA). The average of triplicates from untreated samples was used as control reading and increase in cytoplasmic or mitochondrial Ca^2+ was calculated as percent increase from control samples.
Due to the high levels of glycoprotein production in MM cells, it was investigated whether there is a greater ER Ca^2+ leak in these cells as compared to Bcells. As shown in previous reports, ER Ca^2+ leak can be assayed indirectly by measuring cytoplasmic Ca^2+ concentration following inhibition of SERCA by thapsigargine.

[11] = 24 h, at doses toxic to MM cell lines
[12] = 24 h, at concentrations toxic to MM cell lines

| Compound | cytotoxicity (cell death) [2] | cytotoxicity [3, 11] | cytotoxicity [4, 12] | cytotoxicity (cell death) [5] | increase in cytoplasmic Ca2+ after mitochondrial inhibitor [7] | treatment time at which CHOP/GADD153 expression is noted [8] | CHOP/GADD153 expression relative to CCCP [9] | other results |
| --- | --- | --- | --- | --- | --- | --- | --- | --- |
| CC(=O)OCOC(=O)CN(CC(=O)OCOC(C)=O)c1ccccc1OCCOc1ccccc1N(CC(=O)OCOC(C)=O)CC(=O)OCOC(C)=O [BAPTA-AM] |  |  |  |  |  |  |  | reversal of CCCP induced toxicity [1]: does not reverse the toxicity of CCCP |
| CC(C)OC(=O)C(C)(C)Oc1ccc(C(=O)c2ccc(Cl)cc2)cc1 [fenofibrate] | significant toxicity | not toxic to non-myeloma cells | less toxic to B-cell leukemia lines | significant toxicity |  |  |  |  |
| CC[C@H]1/C=C/C=C/C[C@@H](C)[C@H](O)[C@@](C)(O)C(=O)[C@@H](C)[C@H](O)[C@@H](C)C(=O)[C@@H](C)[C@H](O)[C@@H](C)/C=C/C(=O)O[C@@H]2[C@H](C)[C@H](CC1)O[C@]1(CC[C@H](C)[C@H](C[C@@H](C)O)O1)[C@H]2C [oligomycin] |  | little or no toxicity | little or no toxicity |  | minimal or no effect | 6 h | comparable to that induced by CCCP | cytotoxic potency compared to the other mitochondrial inhibitors ([2]; 24 h, MM cells): less toxic potency in MM cells when compared to other inhibitors; cytotoxicity (cell death) ([2]; 24 h treatment, all 4 MM cell lines): significant cell death; effect on mitochondrial Ca2+ uptake [6]: little or no effect; cytotoxicity (cell death) ([5]; 24 h, all 3 MM cell lines): significant cell death |
| C=C(C)[C@H]1Cc2c(ccc3c2O[C@@H]2COc4cc(OC)c(OC)cc4[C@@H]2C3=O)O1 [rotenone] | significant cell death |  |  | significant cell death | not seen in non-myeloma cell lines except for NALM6 | 6 h | less CHOP/GADD153 expression than CCCP | cytotoxic potency compared to the other mitochondrial inhibitors [2]: equipotency in inducing cytotoxicity in MM cells; cytotoxicity [3]: little or no toxicity; cytoplasmic Ca2+ after mitochondrial inhibitor [6]: immediate increase in cytoplasmic Ca^2+; effect on mitochondrial Ca2+ uptake [6]: equally inhibit mitochondrial Ca^2+ uptake; cytotoxicity [4]: little or no toxicity |
| C/C=C(/C)C(=O)O[C@H]1C(C)=C2[C@H]([C@@H]1OC(=O)CCCCCCC)[C@@](C)(OC(C)=O)C[C@H](OC(=O)CCC)[C@@]1(O)[C@H]2OC(=O)[C@@]1(C)O [thapsigargine] | sensitive | resistant | resistant | sensitive |  |  |  | order of sensitivity among MM cell lines ([2]; 24 h treatment): MM.1S>8226>KMS-11>U266; cytoplasmic Ca2+ increase after thapsigargine in 8226 ([6]; 8226 compared to KMS-11 or U266): increase less than that observed in KMS-11 or U266 cell lines; lag before increase in cytoplasmic Ca2+ ([6]; U266 (printed U226) cell line): ~20 min; cytoplasmic Ca2+ concentration after thapsigargine ([6]; immediately after addition, MM1.S, 8226 and KMS-11): significantly increases; cytoplasmic Ca2+ after thapsigargine ([7]; 143B and 1420, 30 min. after addition): significantly increases; cytoplasmic Ca2+ after thapsigargine ([7]; NALM6 and MDA-MB-435): little or no change; order of ER Ca2+ leak after thapsigargine ([10]; MM cell lines): MM1.S>8226>KMS-11; cytoplasmic Ca2+ concentration at new equilibrium ([10]; after 30 min, MM versus B-cell leukemias): all 3 MM cell lines had significantly greater cytoplasmic Ca^2+ concentration than the 2 B-cell leukemias; cytoplasmic Ca2+ concentration ([10]; within 5 min after addition, all five cell lines): significantly increases |
| Cc1c(C)c2c(c(C)c1O)CCC(C)(COc1ccc(CC3SC(=O)NC3=O)cc1)O2 (stereo not drawn) [troglitazone] | significant toxicity | not toxic to non-myeloma cells | less toxic to B-cell leukemia lines | significant toxicity |  |  |  |  |
| Z-VAD |  |  |  |  |  |  |  | reversal of CCCP induced toxicity [1]: can reverse the majority of CCCP toxicity |
| antimycin A | significant cell death |  |  | significant cell death | not seen in non-myeloma cell lines except for NALM6 | 6 h | comparable to that induced by CCCP | cytotoxic potency compared to the other mitochondrial inhibitors [2]: less toxic than these two mitochondrial inhibitors; cytotoxicity [3]: little or no toxicity; cytoplasmic Ca2+ after mitochondrial inhibitor [6]: immediate increase in cytoplasmic Ca^2+; cytotoxicity [4]: little or no toxicity |
